Measured values as given in patent publication US20230159453A1 (COCRYSTAL PHARMA, INC., priority 2020, published 2023).

Target: SARS2 protease (Severe acute respiratory syndrome coronavirus 2, UniProt P0DTD1)
Test: SARS-CoV-2 protease inhibition assay (SARS2 FRET protease assay)
Format: biochemical
Conditions: SARS-CoV-2 protease 25 nM, FRET, peptide substrate 1.3 μM, 30 minutes at 30° C., compounds 20 μM to 1.0 nM; read-out: IC50

**Q.** With `CC(C)C[C@H](NC(=O)OC(c1cccc(Cl)c1)C1(c2cccc(Cl)c2)CC1)C(=O)N[C@@H](C[C@@H]1CCNC1=O)C(=O)C(=O)NC1CC1` (stereo partly drawn) [Compound C187, (3-chlorophenyl)(1-(3-chlorophenyl)cyclopropyl)methyl ((S)-1-(((S)-4-(cyclopropylamino)-3,4-dioxo-1-((S)-2-oxopyrrolidin-3-yl)butan-2-yl)amino)-4-methyl-1-oxopentan-2-yl)carbamate] as the compound, how does the IC50 read?
**A.** 109 nM

**Q.** With `CC(C)C[C@H](NC(=O)OC(c1ccccc1)C(C)(C)c1cccc(Cl)c1)C(=O)N[C@@H](C[C@@H]1CCNC1=O)C(=O)C(=O)NCCN(C)C` (stereo partly shown) [Compound C260] as the compound, how does the IC50 read?
**A.** 1140 nM

**Q.** With `NC(=O)C(=O)[C@H](C[C@@H]1CCNC1=O)NC(=O)[C@H](Cc1ccccc1)NC(=O)OC(CCc1ccccc1)c1ccccc1` (stereo partly shown) [Compound C255] as the compound, how does the IC50 read?
**A.** 70 nM

**Q.** For `CC(C)(c1cccc(Cl)c1)C(OC(=O)N[C@@H](CC1CCCCC1)C(=O)N[C@@H](C[C@@H]1CCNC1=O)C(=O)C(=O)O)c1ccc2ccccc2c1` (stereo partly drawn) [Compound C235, (3S)-3-((2S)-2-(((2-(3-Chlorophenyl)-2-methyl-1-(naphthalen-2-yl)propoxy)carbonyl)amino)-3-cyclohexylpropanamido)-2-oxo-4-((S)-2-oxopyrrolidin-3-yl)butanoic acid], which IC50 is on record?
**A.** 71 nM

**Q.** How did the IC50 turn out when `CCOP(=O)(OCC)C(O)[C@H](CCC(=O)N1CCOc2ccccc2C1)NC(=O)[C@H](CC1CCCCC1)NC(=O)OC1CCN(C(=O)OC(C)(C)C)CC1` (stereo partly drawn) [Compound C13, Tert-butyl 4-((((2S)-3-cyclohexyl-1-(((2S)-1-(diethoxyphosphoryl)-5-(2,3-dihydrobenzo[f][1,4]oxazepin-4(5H)-yl)-1-hydroxy-5-oxopentan-2-yl)amino)-1-oxopropan-2-yl)carbamoyl)oxy)piperidine-1-carboxylate] was run?
**A.** > 200000 nM

**Q.** `CC(C)C[C@H](NC(=O)OC1(Cc2cccnc2)CC1)C(=O)N[C@@H](C[C@@H]1CCNC1=O)C(O)S(=O)(=O)O` (stereo partly drawn) [Compound C62, (2S)-1-Hydroxy-2-((S)-4-methyl-2-(((1-(pyridin-3-ylmethyl)cyclopropoxy)carbonyl)amino)pentanamido)-3-((S)-2-oxopyrrolidin-3-yl)propane-1-sulfonate] was tested. Which IC50 did it give?
**A.** 4600 nM

**Q.** `O=C(N[C@@H](CC1CCCCC1)C(=O)NC(CC1CC2(CCCCC2)NC1=O)C(=O)C(=O)NC1CC1)OC1CCCC1Cc1cccc(Cl)c1` (stereo partly drawn) [Compound C192, 2-(3-Chlorobenzyl)cyclopentyl ((2S)-3-cyclohexyl-1-((4-(cyclopropylamino)-3,4-dioxo-1-(2-oxo-1-azaspiro[4.5]decan-3-yl)butan-2-yl)amino)-1-oxopropan-2-yl)carbamate] was tested. Which IC50 did it give?
**A.** 617 nM

**Q.** For `CCCC[C@H](NC(=O)OC(c1ccccc1)C(C)(C)c1cccc(Cl)c1)C(=O)N[C@H](C=O)C[C@@H]1CCNC1=O` (stereo partly drawn) [Compound C157, 2-(3-Chlorophenyl)-2-methyl-1-phenylpropyl ((S)-1-oxo-1-(((S)-1-oxo-3-((S)-2-oxopyrrolidin-3-yl)propan-2-yl)amino)hexan-2-yl) carbamate], which IC50 is on record?
**A.** 0.1 nM

**Q.** How did the IC50 turn out when `CCOP(=O)(OCC)C(O)C(CC1CC2(CCCCC2)NC1=O)NC(=O)C(CC(C)C)NC(=O)OCc1cccc(Cl)c1` (stereo in doubt) [Compound C85, 3-Chlorobenzyl ((2R)-1-((1-(diethoxyphosphoryl)-1-hydroxy-3-(2-oxo-1-azaspiro[4.5]decan-3-yl)propan-2-yl)amino)-4-methyl-1-oxopentan-2-yl)carbamate] was run?
**A.** 17800 nM

**Q.** How did the IC50 turn out when `COc1cccc2[nH]c(C(=O)N[C@@H](CC(C)C)C(=O)NC(C=O)CC3CC4(CCCCC4)NC3=O)cc12` (stereo partly drawn) [Compound C214, 4-Methoxy-N-((2S)-4-methyl-1-oxo-1-((1-oxo-3-(2-oxo-1-azaspiro[4.5]decan-3-yl)propan-2-yl)amino)pentan-2-yl)-1H-indole-2-carboxamide] was run?
**A.** 11 nM

**Q.** For `CC1(C)CC(CC(NC(=O)[C@H](CC2CCCCC2)NC(=O)c2cc3ccccc3[nH]2)C(=O)C(N)=O)C(=O)N1` (stereo partly drawn) [Compound C123, N-((2S)-1-((4-amino-1-(5,5-dimethyl-2-oxopyrrolidin-3-yl)-3,4-dioxobutan-2-yl)amino)-3-cyclohexyl-1-oxopropan-2-yl)-1H-indole-2-carboxamide], which IC50 is on record?
**A.** 294 nM

**Q.** `CS(=O)(=O)N1CCC2(CC1)CC(CC(NC(=O)[C@H](CC1CCCCC1)NC(=O)OC1CCCC1Cc1cccc(Cl)c1)C(=O)C(=O)NC1CC1)C(=O)N2` (stereo partly drawn) [Compound C177, 2-(3-chlorobenzyl)cyclopentyl ((2S)-3-cyclohexyl-1-((4-(cyclopropylamino)-1-(8-(methylsulfonyl)-2-oxo-1,8-diazaspiro[4.5]decan-3-yl)-3,4-dioxobutan-2-yl)amino)-1-oxopropan-2-yl)carbamate] was tested. Which IC50 did it give?
**A.** 4390 nM

**Q.** How did the IC50 turn out when `CC1(C)CC(CC(NC(=O)[C@H](CC2CCCCC2)NC(=O)OC(c2cccc(F)c2)C(C)(C)c2cccc(Cl)c2)C(=O)C(=O)NC2CC2)C(=O)N1` (stereo partly drawn) [Compound C205, 2-(3-Chlorophenyl)-1-(3-fluorophenyl)-2-methylpropyl ((2S)-3-cyclohexyl-1-((4-(cyclopropylamino)-1-(5,5-dimethyl-2-oxopyrrolidin-3-yl)-3,4-dioxobutan-2-yl)amino)-1-oxopropan-2-yl)carbamate] was run?
**A.** 2560 nM

**Q.** For `CC(C)C[C@H](NC(=O)OC1(Cc2ccccc2)CC1)C(=O)N[C@H](C=O)C[C@@H]1CCNC1=O` [Compound C44, 1-Benzylcyclopropyl ((S)-4-methyl-1-oxo-1-(((S)-1-oxo-3-((S)-2-oxopyrrolidin-3-yl)propan-2-yl)amino)pentan-2-yl) carbamate], which IC50 is on record?
**A.** 331 nM

**Q.** With `CS(=O)(=O)N1CCC2(CC1)CC(CC(C=O)NC(=O)[C@H](CC1CCCCC1)NC(=O)OC1CCCC1Cc1cccc(Cl)c1)C(=O)N2` (stereo partly drawn) [Compound C189, 2-(3-Chlorobenzyl)cyclopentyl ((2S)-3-cyclohexyl-1-((1-(8-(methylsulfonyl)-2-oxo-1,8-diazaspiro[4.5]decan-3-yl)-3-oxopropan-2-yl)amino)-1-oxopropan-2-yl)carbamate] as the compound, how does the IC50 read?
**A.** 340 nM

**Q.** With `CCOP(=O)(OCC)C(O)[C@H](CCC(=O)N(C)C1(Cc2ccccc2)CC1)NC(=O)[C@H](CC1CCCCC1)NC(=O)OCc1cccc(Cl)c1` (stereo partly drawn) [Compound C5, 3-Chlorobenzyl ((2S)-1-(((2S)-5-((1-benzylcyclopropyl)(methyl)amino)-1-(diethoxyphosphoryl)-1-hydroxy-5-oxopentan-2-yl)amino)-3-cyclohexyl-1-oxopropan-2-yl)carbamate] as the compound, how does the IC50 read?
**A.** > 200000 nM

**Q.** For `CC(=O)N1CCC2(CC1)C[C@@H](C[C@H](NC(=O)[C@H](CC1CCCCC1)NC(=O)c1cc3ccccc3[nH]1)C(=O)C(N)=O)C(=O)N2` [Compound C121, N—((S)-1-(((S)-1-((R)-8-acetyl-2-oxo-1,8-diazaspiro[4.5]decan-3-yl)-4-amino-3,4-dioxobutan-2-yl)amino)-3-cyclohexyl-1-oxopropan-2-yl)-1H-indole-2-carboxamide], which IC50 is on record?
**A.** 178 nM

**Q.** Which IC50 does the source give for `CC(C)(c1cccc(Cl)c1)[C@@H](OC(=O)N[C@@H](CC1CCCCC1)C(=O)N[C@@H](C[C@@H]1CCNC1=O)C(=O)C(N)=O)c1cccc(F)c1` [Compound C182] here?
**A.** 2470 nM

**Q.** `CCOC(=O)/C=C/[C@H](C[C@@H]1CCNC1=O)NC(=O)[C@H](CC(C)C)NC(=O)OC(Cc1ccccc1)c1ccccc1` (stereo partly drawn) [Compound C232, Ethyl (4S, E)-4-((2S)-2-(((1,2-diphenylethoxy)carbonyl)amino)-4-methylpentanamido)-5-((S)-2-oxopyrrolidin-3-yl) pent-2-enoate] was tested. Which IC50 did it give?
**A.** 15100 nM

**Q.** Which IC50 does the source give for `CC(C)(c1cccc(Cl)c1)C(OC(=O)N[C@@H](Cc1ccccc1)C(=O)N[C@@H](C[C@@H]1CCNC1=O)C(=O)C(N)=O)c1ccccc1` (stereo partly shown) [Compound C254] here?
**A.** 4270 nM

**Q.** Which IC50 does the source give for `O=C(N[C@@H](CC1CCCCC1)C(=O)NC(CC1CC2(CCC2)NC1=O)C(=O)C(=O)NC1CC1)OCc1cccc(Cl)c1` (stereo partly drawn) [Compound C290, 3-Chlorobenzyl ((2S)-3-cyclohexyl-1-((4-(cyclopropylamino)-3,4-dioxo-1-(6-oxo-5-azaspiro[3.4]octan-7-yl)butan-2-yl)amino)-1-oxopropan-2-yl)carbamate] here?
**A.** 508 nM

**Q.** Which IC50 does the source give for `CC1(C)CC(C[C@H](NC(=O)[C@H](CC2CCCCC2)NC(=O)OC2CCCC2Cc2cccc(Cl)c2)C(=O)C(=O)NC2CC2)C(=O)N1` (stereo partly drawn) [Compound C167, 2-(3-Chlorobenzyl)cyclopentyl ((2S)-3-cyclohexyl-1-((4-(cyclopropylamino)-1-(5,5-dimethyl-2-oxopyrrolidin-3-yl)-3,4-dioxobutan-2-yl)amino)-1-oxopropan-2-yl)carbamate] here?
**A.** 2050 nM

**Q.** Which IC50 does the source give for `CC(C)C[C@H](NC(=O)OC1CCCC1Cc1cccc(Cl)c1)C(=O)N[C@@H](C[C@@H]1CCNC1=O)C(=O)C(=O)NC1CC1` (stereo partly drawn) [Compound C196, 2-(3-Chlorobenzyl)cyclopentyl ((S)-1-(((S)-4-(cyclopropylamino)-3,4-dioxo-1-((S)-2-oxopyrrolidin-3-yl)butan-2-yl)amino)-4-methyl-1-oxopentan-2-yl)carbamate] here?
**A.** 108 nM

**Q.** With `CC1(C)CC(CC(C=O)NC(=O)[C@H](CC2CCCCC2)NC(=O)OC(Cc2cccc(Cl)c2)c2ccccc2)C(=O)N1` (stereo partly drawn) [Compound C180, 2-(3-Chlorophenyl)-1-phenylethyl ((2S)-3-cyclohexyl-1-((1-(5,5-dimethyl-2-oxopyrrolidin-3-yl)-3-oxopropan-2-yl)amino)-1-oxopropan-2-yl) carbamate] as the compound, how does the IC50 read?
**A.** 56.6 nM

**Q.** Which IC50 does the source give for `CCOP(=O)(OCC)C(O)[C@H](CCC(=O)N1CCOc2ccccc2C1)NC(=O)[C@H](CC1CCCCC1)NC(=O)N(C)Cc1cccc(Cl)c1` (stereo partly drawn) [Compound C31, Diethyl ((2S)-2-((S)-2-(3-(3-chlorobenzyl)-3-methylureido)-3-cyclohexylpropanamido)-5-(2,3-dihydrobenzo[f][1,4]oxazepin-4(5H)-yl)-1-hydroxy-5-oxopentyl)phosphonate] here?
**A.** > 200000 nM
